Columns and labels:
[1] = test system: tumor cells; test: Stained dead tumor cells in peritoneal fluid of tumor-bearing mice (ELE, CPT); assay type: in vivo; conditions: 12th day of tumor inoculation
Excerpt: (§1) The acceptable criterion for determining the anti-tumor efficacy of the formulation over the free ELE and PK-ELE-NP are the determination of the life span prolongation.
(§2) The number of dead cells in the peritoneal fluid of mice treated with PK-ELE-NP formulation increased life span when compared to free ELE.
(§3) The acceptable criterion for determining the anti-tumor efficacy of the formulation over the free drug and PK-CPT-NP are the determination of the life span prolongation. The number of dead cells in the peritoneal fluid of mice treated with PK-CPT-NP formulation increased life span when compared to free CPT.

[2] = test system: Hela; test: Inhibition of tumor cell proliferation, Hela; assay type: cell-based, human; conditions: 72 hours
Method: Human tumor cell lines: Hela leukemia HL-60, malignant melanocarcinoma B16, oral epidermoid carcinoma (KB), lung carcinoma (A549), breast carcinoma MCF-7, adenocarcinoma of stomach.
(§4) Animal tumor cell lines: Walker carcinoma, LLC-WRC-256, malignant melanoma (RMMI 1846), 3T3, and S-180 sarcoma (CCRF-180). All lines were routinely cultured in the RPMI1640 medium supplemented 20% fetal calf serum. The experiment was carried out in 96 microplate, each well had 5×10^5 cells and given desired concentration of 1 μg/ml (1×10^−6 g/ml) drug. Then the plate was incubated at 37° C. in an atmosphere of humidified air enriched with 5 percent carbon dioxide for 72 hours.
Inhibition percent rate of tumor cell proliferation was obtained according to the bellow formula. [formula]
as §4, with “hours. Concentration of CUR or PK-CUR-NP is 50ng/ml.” for “hours.”
as §4, with “hours. Concentration of ELE or PK-ELE-NP is 50 ng/ml.” for “hours.”
as §4, with “hours. Concentration of CPT or PK-CPT-NP is 50 ng/ml.” for “hours.”

[3] = test system: S180; test: Growth of transplanted tumor, S180 (tumor weight); assay type: in vivo, mice; conditions: 20 mg/kg i.p. from second day, tumor weight on 12th day
Method: (§5) Male mice, weight 20-22 g, were used in the experiment. 1×10^7 tumor cells were injected to mouse and PK-HHT-NP injected intraperitoneally began second day. All mice were sacrificed on the 12th days, isolated the tumor and weighed and calculated the inhibition rate of tumor weight.
(§6) Male mice, weight 20-22 g, were used in the experiment. 1×10^7 tumor cells were injected to mouse and CUR and PK-CUR-NP injected intraperitoneally began second day. All mice were sacrificed on the 12th days, isolated the tumor and weighed and calculated the inhibition rate of tumor weight.
(§7) Male mice, weight 20-22 g, were used in the experiment. 1×10^7 tumor cells were injected to mouse and ELE injected intraperitoneally began second day. All mice were sacrificed on the 12th days, isolated the tumor and weighed and calculated the inhibition rate of tumor weight.
(§8) Male mice, weight 20-22 g, were used in the experiment. 1×10^7 tumor cells were injected to mouse and CPT injected intraperitoneally began second day. All mice were sacrificed on the 12th days, isolated the tumor and weighed and calculated the inhibition rate of tumor weight.

[4] = test system: NNK-induced lung tumorigenesis (pulmonary adenomas); test: NNK-induced lung tumorigenesis; assay type: in vivo, mice; conditions: 20 mg/kg daily by injection; 10 μmol NNK i.p.; sixteen weeks
Method: The capacity of tobacco-specific nitrosamine 4-(methylnitrosamino)-1-(3-pyridyl)-1-butanone (NNK) to induce tumor incidence was recognized.
(§9) Every group had 20 mice. For treatment group, each mouse was gave free CUR and PK-CUR-NP by injection at dose of 20 mg/kg daily. For control group, each mouse was gave same volume of physiological saline. Three days later, mice were gave 10 μmol NNK (in 0.1 ml saline) by i.p. injection. Sixteen weeks after these treatments the mice were killed and pulmonary adenomas were counted. The statistical significance of bioassay data was determined by student's test.
as §9, with “ELE” for “free CUR”, “PK-ELE-NP” for “PK-CUR-NP”
as §9, with “CPT” for “CUR”, “PK-CPT-NP” for “PK-CUR-NP”

[5] = test system: Walker 256; test: Growth of transplanted tumor, Walker 256 (tumor weight); assay type: in vivo, mice; conditions: 20 mg/kg i.p. from second day, tumor weight on 12th day
Method: as §5, §6, §7, §8

[6] = test system: S180, ECS, HCS, ARS, U-14 and L615 transplanted tumor; test: Growth of transplanted tumors; assay type: in vivo, mice; conditions: 20 mg/kg
Method: as §5, §6, §7, §8

[7] = test system: tumor-bearing mice; test: Survival time of tumor-bearing mice (ELE, CPT); conditions: mouse, in vivo
Excerpt: as §1, §2, §3

[8] = test system: L1210; test: Growth of transplanted tumor, L1210 (tumor weight); assay type: in vivo, mice; conditions: 20 mg/kg i.p. from second day, tumor weight on 12th day
Method: as §5, §6, §7, §8

## CC[C@@]1(O)C(=O)OCc2c1cc1n(c2=O)Cc2cc3ccccc3nc2-1 [CPT, Camptothecin]
[1]
  Number of stained dead tumor cells (1 × 10^6 cells mL^−1): 5.36 ± 0.95 1 × 10^6 cells mL^−1
[2]; Homo sapiens, HeLa, 50 ng/ml
  inhibition at 0.05 µg/mL: 60.8 ± 12.2%
[3]
  Inhibition (%) of transplanted tumor: 63.2 ± 12.1%
[4]
  Tumor incidence (%): 36.2 ± 6.2%
[5]
  Inhibition (%) of transplanted tumor: 71.8 ± 10.4%
[6]
  growth of transplanted tumor: could inhibit the growth
[7]
  Increase in life span T/C (%): 144.3%
  MST: 33 ± 4.5 days
[8]
  Inhibition (%) of transplanted tumor: 68.5 ± 9.8%

## C=C1C[C@@]2(O)O[C@@]3(C[C@H]2C(C)C)[C@@H](C)CC[C@@H]13 [CUR, Curcumol]
[2]; 50 ng/ml
  Inhibition (%): 67.2 ± 10.4%
[3]
  Inhibition (%) of transplanted tumor: 63.7 ± 7.3%
[4]
  Tumor incidence (%): 35.8 ± 5.8%
[5]
  Inhibition (%) of transplanted tumor: 59.8 ± 8.5%
[6]
  growth of transplanted tumor: could inhibit the growth
[8]
  Inhibition (%) of transplanted tumor: 70.8 ± 9.0%

## COC(=O)C[C@](O)(CCCC(C)(C)O)C(=O)O[C@@H]1C(OC)=C[C@]23CCCN2CCc2cc4c(cc2[C@H]13)OCO4 [HHT, Homoharringtonine]
[2]; Homo sapiens, HeLa, 1 μg/ml
  inhibition at 1 µg/mL: 75.6 ± 8%
[3]
  Inhibition (%) of transplanted tumor: 76 ± 8%
[5]
  Inhibition (%) of transplanted tumor: 83 ± 9%
[8]
  Inhibition (%) of transplanted tumor: 87 ± 9%

## Eelemene
[1]
  Number of stained dead tumor cells (1 × 10^6 cells mL^−1): 5.80 ± 0.80 1 × 10^6 cells mL^−1
[2]; 50 ng/ml
  Inhibition (%): 69.8 ± 11.2%
[3]
  Inhibition (%) of transplanted tumor: 67.57 ± 9.1%
[4]
  Tumor incidence (%): 34.8 ± 6.2%
[5]
  Inhibition (%) of transplanted tumor: 60.8 ± 8.9%
[6]
  growth of transplanted tumor: could inhibit the growth
[7]
  Increase in life span T/C (%): 144.3%
  MST: 33.2 days
[8]
  Inhibition (%) of transplanted tumor: 71.8 ± 9.5%
